From patent publication US11000033B2, “Ketone or oxime compound, and herbicide” (NISSAN CHEMICAL CORPORATION, priority 2014, dated 2021)

Experiments:
Assay type in all cases: in vivo
[1] = test system: Echinochloa oryzacola Vasing.; assay: Test Example 1: herbicidal activity, application before weed generation in submerged conditions (symbol A); conditions: application herbicide amount 320 g/ha
How it was run: (§1)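 In a flooded pot test with alluvial soil, the emulsion-formulated compound was diluted with water to a predetermined amount and applied to the floodwater immediately on the sowing day. Pots were held in a greenhouse at 25–30 °C for 3 weeks before each weed was rated.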

Scirpus juncoides [2] = assay: Test Example 1: herbicidal activity, application before weed generation in submerged conditions (symbol B); conditions: application herbicide amount 320 g/ha
How it was run: as §1

transplanted rice plant = assay: Test Example 1: effect on crop, application before weed generation in submerged conditions (symbol a); conditions: application herbicide amount 320 g/ha
How it was run: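 Rice at 2.5 leaf stage transplanted into submerged soil (4 cm depth) sown with three weed species; herbicide applied before weed emergence.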

[3] = test system: Echinochloa oryzacola Vasing.; assay: Test Example 2: herbicidal activity, application during weed generation in submerged conditions (symbol A); conditions: Table 23; application herbicide amount 320 g/ha; grade 0-5 by criteria of Test Example 1
How it was run: (§2)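 Seeds sown in flooded alluvial soil (4 cm water) were grown in a 25-30° C greenhouse. At the one- to two-leaf stage, diluted emulsion of compound was applied to the water surface at a predetermined rate. Effect was scored 3 weeks later.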

Scirpus juncoides [4] = assay: Test Example 2: herbicidal activity, application during weed generation in submerged conditions (symbol B); conditions: Table 23; application herbicide amount 320 g/ha; grade 0-5 by criteria of Test Example 1
How it was run: as §2

Cyperus difformis = assay: Test Example 3: herbicidal effect by foliage application, Wagner pot (symbol E); conditions: application herbicide amount 320 g/ha, Table 24
How it was run: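 Plants sown in submerged alluvial soil (water depth 0.1–0.5 cm) in a 25–30 °C greenhouse and grown 14 days. An emulsion of the compound diluted in water to a set herbicide amount was sprayed uniformly on foliage. Effect on each plant scored 3 weeks after application.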

Setaria viridis = assay: Test Example 4: herbicidal effect by soil treatment (symbol G)
Description: (§3) Herbicidal Effect Test by Soil Treatment
(§4) Sterilized diluvial soil was placed in a plastic box having a length of 21 cm, a width of 13 cm, and a depth of 7 cm. Each of the seeds of Digitaria ciliaris, Setaria viridis, Echinochloa crus-galli var. crus-galli, Avena fatua, Alopecurus myosuroides, Lolium multiflorum Lam., Apera spica-venti, Abutilon theophrasti, Amaranthus retroflexus, Chenopodium album, Stellaria media, Galium spurium, Veronica persica, corn, soybean, rice, wheat, beet, and rapeseed was sowed in a spot-like manner and was covered with the soil of a thickness of about 1.5 cm. Subsequently, the emulsion agent of the compound present invention prepared in accordance with Formulation Example 2 was diluted with water so as to be a predetermined herbicide amount and the diluted emulsion agent was uniformly applied to the surface of the soil with a small-size spray. The plastic box was placed in a greenhouse of 25° C. to 30° C. to grow plant. 3 weeks later from the herbicide application, the effect to each plant was investigated in accordance with the criteria of Test Example 1.

Amaranthus retroflexus [5] = assay: Test Example 4: herbicidal effect by soil treatment (symbol N)
Description: as §3, §4

wheat = assay: Test Example 4: effect on crop by soil treatment (symbol e); conditions: for e: wheat, effect on crop grade: application herbicide amount 320 g/ha; for e: wheat, effect grade on crop: 320 g/ha
Description: as §3
Sterilized diluvial soil was placed in a plastic box having a length of 21 cm, a width of 13 cm, and a depth of 7 cm. Each of the seeds of Digitaria ciliaris, Setaria viridis, Echinochloa crus-galli var. crus-galli, Avena fatua, Alopecurus myosuroides, Lolium multiflorum Lam., Apera spica-venti, Abutilon theophrasti, Amaranthus retroflexus, Chenopodium album, Stellaria media, Galium spurium, Veronica persica, corn, soybean, rice, wheat, beet, and rapeseed was sowed in a spot-like manner and was covered with the soil of a thickness of about 1.5 cm. […] The plastic box was placed in a greenhouse of 25° C. to 30° C. to grow plant.

[6] = test system: Echinochloa crus-galli var. crus-galli; assay: Test Example 5: herbicidal effect by foliage application, plastic box (symbol H); conditions: 320 g/ha, 3 weeks after application
How it was run: (§5)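 Greenhouse foliar test: seedlings at 14 days, grown 25° C. to 30° C. in sterilized diluvial soil; compound applied as an aqueous dilution of an emulsion; response read 3 weeks after spraying.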

Alopecurus myosuroides = assay: Test Example 5: herbicidal effect by foliage application, plastic box (symbol J); conditions: 320 g/ha, 3 weeks after application
How it was run: as §5

Amaranthus retroflexus [7] = assay: Test Example 5: herbicidal effect by foliage application, plastic box (symbol N); conditions: 320 g/ha, 3 weeks after application
How it was run: as §5

[8] = application herbicide amount 320 g/ha

Compound	A (Echinochloa oryzacola Vasing.) herbicidal effect grade [1]	B (Scirpus juncoides) herbicidal effect grade (Scirpus juncoides [2])	a (transplanted rice plant) effect on crop grade (transplanted rice plant)	Herbicidal effect grade, A: Echinochloa oryzacola Vasing. [3]	Herbicidal effect grade, B: Scirpus juncoides (Scirpus juncoides [4])	E herbicidal effect grade (Cyperus difformis)	G: Setaria viridis, herbicidal effect grade (Setaria viridis; [8])	N: Amaranthus retroflexus, herbicidal effect grade (Amaranthus retroflexus [5]; [8])	e: wheat, effect on crop grade (wheat)	H: Echinochloa crus-galli var. crus-galli, herbicidal effect grade [6]	J: Alopecurus myosuroides, herbicidal effect grade (Alopecurus myosuroides)	N: Amaranthus retroflexus, herbicidal effect grade (Amaranthus retroflexus [7])	Herbicidal effect grade, A: Echinochloa oryzacola Vasing. [1]	Herbicidal effect grade, B: Scirpus juncoides (Scirpus juncoides [2])	Effect grade on crop, a: transplanted rice plant (transplanted rice plant)	G: Setaria viridis, herbicidal effect grade (Setaria viridis; 320 g/ha)	N: Amaranthus retroflexus, herbicidal effect grade (Amaranthus retroflexus [5]; 320 g/ha)	e: wheat, effect grade on crop (wheat)	H: Echinochloa crus-galli var. crus-galli, herbicidal effect (criteria 0-5) [6]	J: Alopecurus myosuroides, herbicidal effect (criteria 0-5) (Alopecurus myosuroides)	further results
CON=C(CC1CC(O)=C(c2c(C)cc(C)cc2OC)C1=O)C1CC1 (mixture of isomers) [13-002]	5 (Herbicidal ratio of 90% or more (almost completely withered))	4 (Herbicidal ratio of 70% or higher and lower than 90%)	5 (Herbicidal ratio of 90% or more (almost completely withered))	5 (Herbicidal ratio of 90% or more (almost completely withered))	5 (Herbicidal ratio of 90% or more (almost completely withered))	5 (Herbicidal ratio of 90% or more (almost completely withered))	5 (Herbicidal ratio of 90% or more (almost completely withered))	0 (Herbicidal ratio of 5% or lower (almost no effect))	3 (Herbicidal ratio of 40% or higher and lower than 70%)	5 (Herbicidal ratio of 90% or more (almost completely withered))	5 (Herbicidal ratio of 90% or more (almost completely withered))	0 (Herbicidal ratio of 5% or lower (almost no effect))									
CCC(CC1CC(O)=C(c2c(C)cc(C)cc2OC)C1=O)=NOC (mixture of isomers) [13-003]	5 (Herbicidal ratio of 90% or more (almost completely withered))	5 (Herbicidal ratio of 90% or more (almost completely withered))	5 (Herbicidal ratio of 90% or more (almost completely withered))	5 (Herbicidal ratio of 90% or more (almost completely withered))	4 (Herbicidal ratio of 70% or higher and lower than 90%)	5 (Herbicidal ratio of 90% or more (almost completely withered))	5 (Herbicidal ratio of 90% or more (almost completely withered))	0 (Herbicidal ratio of 5% or lower (almost no effect))	0 (Herbicidal ratio of 5% or lower (almost no effect))	5 (Herbicidal ratio of 90% or more (almost completely withered))	5 (Herbicidal ratio of 90% or more (almost completely withered))	0 (Herbicidal ratio of 5% or lower (almost no effect))									
CC(CC1CC(O)=C(c2c(C)cc(C)cc2C)C1=O)=NOCC(C)Br (centres unmarked) [1-135]				5 (Herbicidal ratio of 90% or more (almost completely withered))	4 (Herbicidal ratio of 70% or higher and lower than 90%)								5 (Herbicidal ratio of 90% or more (almost completely withered))	5 (Herbicidal ratio of 90% or more (almost completely withered))	5 (Herbicidal ratio of 90% or more (almost completely withered))	5 (Herbicidal ratio of 90% or more (almost completely withered))	0 (Herbicidal ratio of 5% or lower (almost no effect))	0 (Herbicidal ratio of 5% or lower (almost no effect))	5 (Herbicidal ratio of 90% or more (almost completely withered))	5 (Herbicidal ratio of 90% or more (almost completely withered))	N: Amaranthus retroflexus, herbicidal effect (criteria 0-5) (Amaranthus retroflexus [7]): 0 (Herbicidal ratio of 5% or lower (almost no effect))
CC(CC1CC(O)=C(c2c(C)cc(C)cc2C)C1=O)=NOCc1ccc(F)cc1 (centres unmarked) [1-136]				4 (Herbicidal ratio of 70% or higher and lower than 90%)	4 (Herbicidal ratio of 70% or higher and lower than 90%)								5 (Herbicidal ratio of 90% or more (almost completely withered))	5 (Herbicidal ratio of 90% or more (almost completely withered))	5 (Herbicidal ratio of 90% or more (almost completely withered))	5 (Herbicidal ratio of 90% or more (almost completely withered))	0 (Herbicidal ratio of 5% or lower (almost no effect))	3 (Herbicidal ratio of 40% or higher and lower than 70%)	5 (Herbicidal ratio of 90% or more (almost completely withered))	5 (Herbicidal ratio of 90% or more (almost completely withered))	
CC(CC1CC(O)=C(c2c(C)cc(C)cc2C)C1=O)=NOCc1ccc(Cl)cc1 (centres unmarked) [1-137]				4 (Herbicidal ratio of 70% or higher and lower than 90%)	4 (Herbicidal ratio of 70% or higher and lower than 90%)								5 (Herbicidal ratio of 90% or more (almost completely withered))	5 (Herbicidal ratio of 90% or more (almost completely withered))	5 (Herbicidal ratio of 90% or more (almost completely withered))	5 (Herbicidal ratio of 90% or more (almost completely withered))		0 (Herbicidal ratio of 5% or lower (almost no effect))	5 (Herbicidal ratio of 90% or more (almost completely withered))	5 (Herbicidal ratio of 90% or more (almost completely withered))	
CC(CC1CC(O)=C(c2c(C)cc(C)cc2C)C1=O)=NOCc1ccc(C(F)(F)F)cc1 (centres unmarked) [1-138]				3 (Herbicidal ratio of 40% or higher and lower than 70%)	4 (Herbicidal ratio of 70% or higher and lower than 90%)								5 (Herbicidal ratio of 90% or more (almost completely withered))	5 (Herbicidal ratio of 90% or more (almost completely withered))	5 (Herbicidal ratio of 90% or more (almost completely withered))	4 (Herbicidal ratio of 70% or higher and lower than 90%)	0 (Herbicidal ratio of 5% or lower (almost no effect))	0 (Herbicidal ratio of 5% or lower (almost no effect))	5 (Herbicidal ratio of 90% or more (almost completely withered))	5 (Herbicidal ratio of 90% or more (almost completely withered))	N: Amaranthus retroflexus, herbicidal effect (criteria 0-5) (Amaranthus retroflexus [7]): 0 (Herbicidal ratio of 5% or lower (almost no effect))
